In US20120220480A1, “METHOD FOR THE DETECTION OF RENAL DAMAGE” (UNIVERSIDAD DE SALAMANCA, priority 2009, published 2012):
Marks after values point to notes of the source that are not given here.

Experiments:
reg IIIb [1] = assay: Western blot analysis of reg IIIb in urine and serum of treated rats
Description: Female Wistar rats were used weighing 200-250 g. The animals were allocated under controlled environmental conditions in individual metabolic cages, for individual urine sample collection every 24 hours. Normal feed and water were administered ad libitum. […] On day 7, the animals were anaesthetised with sodium pentobarbital and the kidneys were perfused by the aorta with saline (0.9% NaCl) to eliminate the blood. The kidneys were immediately dissected. One was frozen in liquid nitrogen and subsequently kept at −80° C. for Western blot studies, and the other was soaked in p-formaldehyde at 3.7% for histological studies. Blood samples were also obtained in heparinised capillaries at different time points by a small incision in the tail tip. Blood was centrifuged and serum was kept at −80° C. until use. Urine was cleared by centrifugation at 10,000 g and 4° C. during 10 minutes, and kept at −80° C. until use. […]

[2] = Leehey D J et al., 1993; cited from earlier work
Kidney sections = assay: Renal histopathological study (hematoxilin and eosin stained kidney sections); assay type: in vivo, rat; conditions: rats
Description: (§1) Female Wistar rats were used weighing 200-250 g. […] Normal feed and water were administered ad libitum. […] The kidneys were immediately dissected.
The kidneys were kept in p-formaldehyde all night at 4° C. Next, paraffin blocks were made and 5-μm tissue sections were cut and stained with hematoxilin and eosin. Photographs were taken under an Olympus BX51 microscope connected to an Olympus DP70 colour digital camera.

gelsolin [3] = assay: Western blot analysis of gelsolin in urine and serum of treated rats
Description: (§2) Female Wistar rats were used weighing 200-250 g. The animals were allocated under controlled environmental conditions in individual metabolic cages, for individual urine sample collection every 24 hours. Normal feed and water were administered ad libitum. […] On day 7, the animals were anaesthetised with sodium pentobarbital and the kidneys were perfused by the aorta with saline (0.9% NaCl) to eliminate the blood. The kidneys were immediately dissected. One was frozen in liquid nitrogen and subsequently kept at −80° C. for Western blot studies, and the other was soaked in p-formaldehyde at 3.7% for histological studies. Blood samples were also obtained in heparinised capillaries at different time points by a small incision in the tail tip. Blood was centrifuged and serum was kept at −80° C. until use. Urine was cleared by centrifugation at 10,000 g and 4° C. during 10 minutes, and kept at −80° C. until use.
Western blots were run with (i) urine samples (21 μl per sample), (ii) tissue extracts (100 μg total protein per sample) prepared by homogenizing the kidneys with a tissue mixer (Ultra-Turrax T8, IKA®-Werwe) at 4° C. in homogenization buffer (140 mM NaCl, 20 mM Tris-HCl pH=7.5, […] ethylenediaminetetraacetic acid—EDTA-, 10% glycerol, 1% Igepal CA-630, 1 μg/mL aprotinin, 1 μg/mL leupeptin, 1 μg/mL pepstatin A, 1 mM phenylmethylsulphonyl fluoride—PMSF—), or (iii) albumin-free blood serum. Albumin was removed from serum with a column-based, commercial kit based on the immunological retention of rat albumin (Qproteome Murine Albumin Depletion Kit, Quiagen). Samples were separated by electrophoresis in 10-15% acrylamide gels (Mini Protean II system, BioRad). Immediately, proteins were electrically transferred to an Immobilon-P membrane (Millipore). Membranes were probed with antibodies against KIM-1 (R&D Systems), bone morphogenetic protein 7 (BMP-7, Santa Cruz Biotechnology), NGAL (MBL), PAI-1 (BD Biosciences), reg IIIb (R&D Systems), and gelsolin (Santa Cruz Biotechnology).

Female Wistar rats = assay: Gentamicin-induced kidney damage in rats: survival, body weight, serum and urine biochemical measurements
Description: as §2
Serum and urinary creatinine and urea nitrogen concentration were measured using commercial reactive strips (Roche Diagnostics) and the Reflotron® automated analyser (Roche Diagnostics). […] Urine protein concentration was measured by the Bradford method (Bradford, 1976. Anal Biochem, 72: 248-254). Urine NAG content was indirectly determined by the level of NAG activity. NAG enzymatic activity was determined by a colorimetric method based on the conversion of 3-cresolsulfonphthaleinyl-N-acetyl-D-glucosaminide into the purple 3-cresol-cresolsulfonphthaleinyl, measured at 580 nm using a plate photometer (Thermo). To measure NAG activity a commercial kit was used (Roche Diagnostics) following the manufacturer's instructions.

reg IIIb [4] = assay: Renal tissue gene expression by RT-PCR, reg IIIb; assay type: in vivo, rat; conditions: as early as on day 3, highest on day 6 (FIG. 8-A)
Description: as §1
(§3) RT-PCR-amplification of reg IIIb, gelsolin and GAPDH was performed with the next primers: for rat reg IIIb, SEQ ID NO: 15 and SEQ ID NO: 16; for rat gelsolin, SEQ ID NO: 17 and SEQ ID NO: 18; for rat glyceraldehyde 3-phosphate dehydrogenase (GAPDH), SEQ ID NO: 19 and SEQ ID NO: 20. PCR conditions were: 1×(95° C.×4 min); 30×(95° C.×1 min+Tm×1 min); 1×72° C.×10 min); where Tm was 55.5° C. for reg IIIb, 55.0° C. for gelsolin, and 55.9° C. for GAPDH.

gelsolin [5] = assay: Renal tissue gene expression by RT-PCR, gelsolin; assay type: in vivo, rat; conditions: 3 and 6 days treatment (FIG. 8)
Description: as §1, §3

[6] = rats, gentamicin i.p. 150 mg/kg, after 7 days treatment

Row | Compound | Day on which reg IIIb appears in the urine (reg IIIb [1]; rats, time course of treatment, Western blot (FIG. 7)) | Urinary level of reg IIIb (reg IIIb [1]; urine of rats with overt renal failure, Western blot (FIG. 6-A)) | Proportion of treatments in which nephrotoxicity appears [2] | Renal histopathology after 3 days of treatment (Kidney sections; after 3 days of treatment (FIG. 7)) | Renal histopathology at end of treatment (Kidney sections; hematoxilin-eosin, end of treatment (FIG. 2)) | Full length gelsolin band in urine (gelsolin [3]; urine of rats with overt renal failure, Western blot (FIG. 6)) | Proteinuria (Female Wistar rats; [6]) | Urine flow (Female Wistar rats; [6]) | Δ Weight (body weight as a percentage of the initial weight) (Female Wistar rats; [6]) | Renal reg IIIb gene expression (reg IIIb [4]) | Renal expression pattern of gelsolin (gelsolin [5]) | Full length gelsolin band in urine (gelsolin [3]; rat, in vivo) | ~43 kDa gelsolin fragment (t-gelsolin) band in urine (gelsolin [3]; rat, in vivo) | Renal failure (serum creatinine concentration and BUN) (Female Wistar rats; rat, in vivo)
1 | gentamicin | 4 days | markedly increased | 10-25% | no findings of tubular damage | clear tubular necrosis | induces the appearance | 40 ± 7.4^a mg/day | 18 ± 3^a mL/day | 95 ± 3^a % | induces an increase | does not modify |  |  | 
2 | N.N.[Cl][Pt][Cl] [cisplatin] |  |  |  |  |  |  |  |  |  |  |  | absent in the urine from all of the rats treated with cisplatin, except for one of them | common to both gentamicin and cisplatin groups | developed an overt renal failure
